pKi: −log10 of the molar value. Where two headings read alike, the source gives them in different places.
Tests used:
[1] = target: human GABAA α2β2γ1 receptor (Homo sapiens (Human), UniProt P47869+Q8N1C3); experiment: Radioligand binding assay, competition for [3H]RO7239181, γ1-containing GABAA subtypes
h-GABA-A α2β2γ1 = h-GABA-A α2β2γ1 (Homo sapiens (Human), UniProt P47869+Q8N1C3); experiment: Two-electrode voltage clamp electrophysiology in Xenopus oocytes expressing GABAA receptors; assay type: cell-based; conditions: for Efficacy (GABA) %: % modulation of GABA EC20 = 100*(Fold increase−1), compound at about 30-fold its Ki α2β2γ1; for Fold increase h-GABA-A α2β2γ1 oocyte @ 30-fold Ki: Xenopus oocytes, GABA EC20, compound at about 30-fold its Ki α2β2γ1
Method in brief: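 Xenopus oocytes injected with receptor subunit RNA and recorded 3–5 days later by two-electrode voltage clamp at −80 mV, room temperature, pH 7.4. GABA applied at EC20 for 1.5 min, with and without test compound. Efficacy = extremum of the point-by-point ratio of the two responses, expressed as % modulation of GABA EC20; ≥3 oocytes per concentration.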

[2] = target: human GABAA α1β3γ2 receptor (Homo sapiens (Human), UniProt P14867+P18507); experiment: Radioligand binding assay, competition for [3H]Flumazenil, γ2-containing GABAA subtypes; conditions: for γ2/γ1 Selectivity Ratio: Ki α1β3γ2 (nM)/Ki α2β2γ1 (nM); for LogSel: Log[Ki α1β3γ2 (nM)/Ki α2β2γ1 (nM)]
Method in brief: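 Competition against [3H]Flumazenil binding in HEK293F cells transiently expressing human α1β3γ2 receptors, pellets resuspended in mannitol buffer pH 7,2-7,4. Incubated to equilibrium 1 hour at 4° C, filtered and washed with ice-cold 50 mM Tris pH 7.5, bound radioactivity by liquid scintillation counting. Ki values are means of two determinations.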

[3] = Ki h-GABAA α2β2γ1, membranes of HEK293F cells, [3H]RO7239181 20-30 nM, Table 1
[4] = Ki h-GABAA α2β2γ1, membranes of HEK293F cells, [3H]RO7239181 20-30 nM, Table 2
[5] = HEK293F cells, [3H]Flumazenil 1 nM, Table 1, read-out: Ki h-GABAA α1β3γ2

SMILES | pKi [1, 3] | pKi [1, 4] | Efficacy (GABA) % (h-GABA-A α2β2γ1) | Fold increase h-GABA-A α2β2γ1 oocyte @ 30-fold Ki (h-GABA-A α2β2γ1) | pKi [2] | γ2/γ1 Selectivity Ratio ([2]; Table 1) | LogSel ([2]; Table 1) | pKi [2, 5] | pKi ([1]; Ki h-GABAA α2β2γ1, Table 3, reference compounds and examples) | γ2/γ1 Selectivity Ratio ([2]; Table 3) | LogSel ([2]; Table 3)
CC(C)c1nnc2n1-c1sc3c(c1C(c1c(F)cccc1F)=N[C@H]2C)COCCO3 [Example 44, (7S)-9-(2,6-difluorophenyl)-3-isopropyl-7-methyl-13,16-dioxa-18-thia-2,4,5,8-tetrazatetracyclo[8.8.0.02,6.011,17]octadeca-1(10),3,5,8,11(17)-pentaene] | 7.54 | 7.54 | 116% | 2.16 | 5.19 | 220.4 | 2.34 |  |  |  | 
C[C@@H]1N=C(c2c(F)cccc2F)c2c(sc3c2COCCO3)-n2nc(C(=O)NCC(C)(C)O)nc21 [Example 45, (7S)-9-(2,6-difluorophenyl)-N-(2-hydroxy-2-methyl-propyl)-7-methyl-13,16-dioxa-18-thia-2,3,5,8-tetrazatetracyclo[8.8.0.02,6.011,17]octadeca-1(10),3,5,8,11(17)-pentaene-4-carboxamide] | 7.87 | 7.87 | 101% | 2.01 |  | 232.1 | 2.37 | 5.50 |  |  | 
C[C@@H]1N=C(c2c(F)cccc2F)c2c(sc3c2COCCO3)-n2nc(C(=O)NC[C@@](C)(O)C(F)(F)F)nc21 [Example 46, (7S)-9-(2,6-difluorophenyl)-7-methyl-N-[(2R)-3,3,3-trifluoro-2-hydroxy-2-methyl-propyl]-13,16-dioxa-18-thia-2,3,5,8-tetrazatetracyclo[8.8.0.02,6.011,17]octadeca-1(10),3,5,8,11(17)-pentaene-4-carboxamide] | 7.82 | 7.82 | 84% | 1.84 |  | 284.3 | 2.45 | 5.36 |  |  | 
C[C@@H]1N=C(c2c(F)cccc2F)c2c(sc3c2COCCO3)-n2nc(C(=O)NC[C@](C)(O)C(F)(F)F)nc21 [Example 47, (7S)-9-(2,6-difluorophenyl)-7-methyl-N-[(2S)-3,3,3-trifluoro-2-hydroxy-2-methyl-propyl]-13,16-dioxa-18-thia-2,3,5,8-tetrazatetracyclo[8.8.0.02,6.011,17]octadeca-1(10),3,5,8,11(17)-pentaene-4-carboxamide] | 7.69 | 7.69 | 89% | 1.89 |  | 174.6 | 2.24 | 5.45 |  |  | 
C[C@@H]1N=C(c2c(F)cccc2F)c2c(sc3c2COCCO3)-n2c(C(F)F)nnc21 [Example 48, (7S)-3-(difluoromethyl)-9-(2,6-difluorophenyl)-7-methyl-13,16-dioxa-18-thia-2,4,5,8-tetrazatetracyclo[8.8.0.02,6.011,17]octadeca-1(10),3,5,8,11(17)-pentaene] | 7.32 | 7.32 | 144% | 2.44 | < 4.52 | 626.6 | 2.80 |  |  |  | 
CCc1nc2n(n1)-c1sc3c(c1C(c1c(F)cccc1F)=N[C@H]2C)COC[C@H](C)O3 [Example 49, (7S,15S)-9-(2,6-difluorophenyl)-4-ethyl-7,15-dimethyl-13,16-dioxa-18-thia-2,3,5,8-tetrazatetracyclo[8.8.0.02,6.011,17]octadeca-1(10),3,5,8,11(17)-pentaene] | 7.28 | 7.28 | 131% | 2.31 | 5.06 | 166.8 | 2.22 |  |  |  | 
Cc1nnc2n1-c1sc3c(c1C(c1c(F)cccc1F)=N[C@H]2C)COCCC3 [Example 52, (7S)-9-(2,6-difluorophenyl)-3,7-dimethyl-13-oxa-18-thia-2,4,5,8-tetrazatetracyclo[8.8.0.02,6.011,17]octadeca-1(10),3,5,8,11(17)-pentaene] | 7.56 | 7.56 | 170% | 2.70 | 5.56 | 100.3 | 2.00 |  | 7.56 | 100.3 | 2.0
C[C@@H]1N=C(c2c(F)cccc2F)c2c(sc3c2COC[C@H](C)O3)-n2nc(C(=O)NCCO)nc21 [Example 53, (7S,15S)-9-(2,6-difluorophenyl)-N-(2-hydroxyethyl)-7,15-dimethyl-13,16-dioxa-18-thia-2,3,5,8-tetrazatetracyclo[8.8.0.02,6.011,17]octadeca-1(10),3,5,8,11(17)-pentaene-4-carboxamide] | 7.02 | 7.02 | 237% | 3.37 |  | 119.7 | 2.08 | 4.94 |  |  | 
Cc1nnc2n1-c1sc3c(c1C(c1c(F)cccc1F)=N[C@H]2C)CC[C@@H](F)CO3 [Example 56, (7S,14R)-9-(2,6-difluorophenyl)-14-fluoro-3,7-dimethyl-16-oxa-18-thia-2,4,5,8-tetrazatetracyclo[8.8.0.02,6.011,17]octadeca-1(10),3,5,8,11(17)-pentaene] | 7.40 | 7.40 | 147% | 2.47 | 4.94 | 290.8 | 2.46 |  |  |  | 
Cc1nc2n(n1)-c1sc3c(c1C(c1c(F)cccc1F)=N[C@H]2C)COCCC3 [Example 57, (7S)-9-(2,6-difluorophenyl)-4,7-dimethyl-13-oxa-18-thia-2,3,5,8-tetrazatetracyclo[8.8.0.02,6.011,17]octadeca-1(10),3,5,8,11(17)-pentaene] | 8.14 | 8.14 | 73% | 1.73 | 5.35 | 615.2 | 2.79 |  |  |  | 
Cc1nnc2n1-c1sc3c(c1C(c1c(F)cccc1Cl)=N[C@H]2C)COCCC3 [Example 61, (7S)-9-(2-chloro-6-fluoro-phenyl)-3,7-dimethyl-13-oxa-18-thia-2,4,5,8-tetrazatetracyclo[8.8.0.02,6.011,17]octadeca-1(10),3,5,8,11(17)-pentaene] | 7.69 | 7.69 | 165% | 2.65 | 5.60 | 122.4 | 2.09 |  |  |  | 
C[C@@H]1N=C(c2c(F)cccc2F)c2c(sc3c2COCCC3)-n2nc(C(=O)NCC3(O)CC3)nc21 [Example 62, (7S)-9-(2,6-difluorophenyl)-N-[(1-hydroxycyclopropyl)methyl]-7-methyl-13-oxa-18-thia-2,3,5,8-tetrazatetracyclo[8.8.0.02,6.011,17]octadeca-1(10),3,5,8,11(17)-pentaene-4-carboxamide] | 7.61 | 7.61 | 179% | 2.79 |  | 200.3 | 2.30 | 5.31 |  |  | 
C[C@@H]1N=C(c2c(F)cccc2F)c2c(sc3c2COCCC3)-n2nc(C(=O)N[C@H]3C[C@H](O)C3)nc21 [Example 63, (7S)-9-(2,6-difluorophenyl)-N-(trans-3-hydroxycyclobutyl)-7-methyl-13-oxa-18-thia-2,3,5,8-tetrazatetracyclo[8.8.0.02,6.011,17]octadeca-1(10),3,5,8,11(17)-pentaene-4-carboxamide] | 7.34 | 7.34 | 169% | 2.69 |  | 96.5 | 1.98 | 5.35 |  |  | 
C[C@@H]1N=C(c2c(F)cccc2F)c2c(sc3c2COCCC3)-n2nc(C(=O)N[C@H]3C[C@@H](O)C3)nc21 [Example 64, (7S)-9-(2,6-difluorophenyl)-N-(cis-3-hydroxycyclobutyl)-7-methyl-13-oxa-18-thia-2,3,5,8-tetrazatetracyclo[8.8.0.02,6.011,17]octadeca-1(10),3,5,8,11(17)-pentaene-4-carboxamide] | 7.25 | 7.25 | 164% | 2.64 |  | 139.9 | 2.15 | 5.10 |  |  | 
C[C@@H]1N=C(c2c(F)cccc2F)c2c(sc3c2COCCO3)-n2cc(C(=O)NCC3(O)CC3)nc21 [Example 65, (7S)-9-(2,6-difluorophenyl)-N-[(1-hydroxycyclopropyl)methyl]-7-methyl-13,16-dioxa-18-thia-2,5,8-triazatetracyclo[8.8.0.02,6.011,17]octadeca-1(10),3,5,8,11(17)-pentaene-4-carboxamide] | 7.64 | 7.64 | 169% | 2.69 |  | 53.8 | 1.73 | 5.91 |  |  | 

Source: patent US20240294543A1, “CYCLOHEPTA-THIENO-DIAZEPINE DERIVATIVES AS GABA A GAMMA1 PAM” (Hoffmann-La Roche Inc., priority 2021, published 2024)
